pIC50: −log10 of the molar value.
Tests used:
His-BIR3 (241-356, XIAP) = target: T1, His-BIR3 (241-356, XIAP) (Homo sapiens, UniProt P98170); test: XIAP-BIR3/SMAC Homogeneous Time Resolved Fluorescence (HTRF) Assay; assay type: binding; conditions: fluorescein labeled SMAC peptide
T1 construct: additions of His-BIR3 (241-356, XIAP), fluorescein labeled SMAC peptide

[1] = target: T2, His-BIR2-3 (125-356, C202A/C213G, XIAP) (Homo sapiens, UniProt P98170, C202A/C213G); test: XIAP-BIR2-3 Dimeric SMAC Peptide Homogeneous Time Resolved Fluorescence (HTRF) Assay; assay type: binding; conditions: fluorescein labeled dimeric SMAC peptide
T2 construct: additions of His-BIR2-3 (125-356, C202A/C213G, XIAP), fluorescein labeled dimeric SMAC peptide
T2 sequence (P98170 125-356 C202A/C213G): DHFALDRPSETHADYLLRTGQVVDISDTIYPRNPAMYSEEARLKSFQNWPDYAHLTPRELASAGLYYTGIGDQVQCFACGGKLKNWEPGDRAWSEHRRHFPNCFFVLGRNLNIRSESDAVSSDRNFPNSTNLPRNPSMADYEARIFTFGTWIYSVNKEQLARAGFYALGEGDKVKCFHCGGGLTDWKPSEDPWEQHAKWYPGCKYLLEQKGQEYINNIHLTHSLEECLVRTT

T1 sequence (P98170 241-356): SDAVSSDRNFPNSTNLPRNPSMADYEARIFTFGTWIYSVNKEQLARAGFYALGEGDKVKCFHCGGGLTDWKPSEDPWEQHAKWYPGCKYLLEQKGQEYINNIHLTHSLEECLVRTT

| SMILES | pIC50 (His-BIR3 (241-356, XIAP)) | pIC50 [1] |
| --- | --- | --- |
| CN[C@@H](C)C(=O)N[C@H](C(=O)N1C[C@@H]2C[C@H]1C(=O)N[C@@H](Cc1ccc3ccccc3c1)C(=O)N[C@H](C(=O)O)Cc1ccc(cc1)C(=O)N[C@H]1C[C@@H](C(=O)N[C@@H](Cc3ccc4ccccc4c3)C(=O)N[C@H](C(=O)O)Cc3ccc(cc3)C(=O)N2)N(C(=O)[C@@H](NC(=O)[C@H](C)NC)C(C)(C)C)C1)C(C)(C)C [Example 85] | 7.77 | 8.60 |
| CN[C@@H](C)C(=O)N[C@H](C(=O)N1C[C@@H]2C[C@H]1C(=O)N[C@@H](Cc1ccc3ccccc3c1)C(=O)N[C@H](C(=O)O)Cc1ccc(cc1)OC/C=C/C[C@H]1C[C@@H](C(=O)N[C@@H](Cc3ccc4ccccc4c3)C(=O)N[C@H](C(=O)NS(=O)(=O)C3CC3)Cc3ccc(cc3)OCc3cn2nn3)N(C(=O)[C@@H](NC(=O)[C@H](C)NC)C(C)(C)C)C1)C(C)(C)C [Example 86] | 8.77 | 8.96 |
| CN[C@@H](C)C(=O)N[C@H](C(=O)N1C[C@@H]2C[C@H]1C(=O)N[C@@H](Cc1ccc3ccccc3c1)C(=O)N[C@H](C(=O)O)Cc1ccc(cc1)OCCCC[C@H]1C[C@@H](C(=O)N[C@@H](Cc3ccc4ccccc4c3)C(=O)N[C@H](C(=O)NS(=O)(=O)C3CC3)Cc3ccc(cc3)OCc3cn2nn3)N(C(=O)[C@@H](NC(=O)[C@H](C)NC)C(C)(C)C)C1)C(C)(C)C [Example 87] | 8.62 | 8.89 |
| CN[C@@H](C)C(=O)N[C@H](C(=O)N1C[C@H]2C/C=C/COc3ccc(cc3)C[C@@H](C(=O)NS(=O)(=O)C3CC3)NC(=O)[C@H](Cc3ccc4ccccc4c3)NC(=O)[C@@H]3C[C@H](C/C=C/COc4ccc(cc4)C[C@@H](C(=O)O)NC(=O)[C@H](Cc4ccc5ccccc5c4)NC(=O)[C@@H]1C2)CN3C(=O)[C@@H](NC(=O)[C@H](C)NC)C(C)(C)C)C(C)(C)C [Example 88] | 8.41 | 8.77 |
| CN[C@@H](C)C(=O)N[C@H](C(=O)N1C[C@H]2CCCCOc3ccc(cc3)C[C@@H](C(=O)NS(=O)(=O)C3CC3)NC(=O)[C@H](Cc3ccc4ccccc4c3)NC(=O)[C@@H]3C[C@H](CCCCOc4ccc(cc4)C[C@@H](C(=O)O)NC(=O)[C@H](Cc4ccc5ccccc5c4)NC(=O)[C@@H]1C2)CN3C(=O)[C@@H](NC(=O)[C@H](C)NC)C(C)(C)C)C(C)(C)C [Example 89] | 8.23 | 8.52 |
| CN[C@@H](C)C(=O)N[C@H](C(=O)N1C[C@H]2CCCCOc3ccc(cc3)C[C@@H](c3nnn[nH]3)NC(=O)[C@H](Cc3ccc4ccccc4c3)NC(=O)[C@@H]3C[C@@H](CN3C(=O)[C@@H](NC(=O)[C@H](C)NC)C(C)(C)C)n3cc(nn3)COc3ccc(cc3)C[C@@H](C(=O)O)NC(=O)[C@H](Cc3ccc4ccccc4c3)NC(=O)[C@@H]1C2)C(C)(C)C [Example 90] | 8.77 | 9.30 |
| CN[C@@H](C)C(=O)NC(C(=O)N1C[C@H]2C/C=C/COc3ccc(cc3)C[C@@H](c3n[nH]c(=O)o3)NC(=O)C(Cc3ccc4ccccc4c3)NC(=O)[C@@H]3C[C@@H](CN3C(=O)[C@@H](NC(=O)[C@H](C)NC)C(C)(C)C)n3cc(nn3)COc3ccc(cc3)C[C@@H](C(=O)O)NC(=O)[C@H](Cc3ccc4ccccc4c3)NC(=O)[C@@H]1C2)C(C)(C)C (some centres unmarked) [Example 91] | 8.70 | 9.40 |
| CN[C@@H](C)C(=O)NC(C(=O)N1C[C@H]2CCCCOc3ccc(cc3)C[C@@H](c3n[nH]c(=O)o3)NC(=O)C(Cc3ccc4ccccc4c3)NC(=O)[C@@H]3C[C@@H](CN3C(=O)[C@@H](NC(=O)[C@H](C)NC)C(C)(C)C)n3cc(nn3)COc3ccc(cc3)C[C@@H](C(=O)O)NC(=O)[C@H](Cc3ccc4ccccc4c3)NC(=O)[C@@H]1C2)C(C)(C)C (some centres unmarked) [Example 92] | 8.54 | 9.05 |

Next, values leading:

| pIC50 (His-BIR3 (241-356, XIAP)) | pIC50 [1] | SMILES |
| --- | --- | --- |
| 9.10 | 9.40 | CN[C@@H](C)C(=O)N[C@H](C(=O)N1C[C@@H]2C[C@H]1C(=O)NC(Cc1ccc3ccccc3c1)C(=O)N[C@H](c1nnn[nH]1)Cc1ccc(cc1)OC/C=C/C[C@H]1C[C@@H](C(=O)N[C@@H](Cc3ccc4ccccc4c3)C(=O)N[C@H](C(=O)O)Cc3ccc(cc3)OCc3cn2nn3)N(C(=O)[C@@H](NC(=O)[C@H](C)NC)C(C)(C)C)C1)C(C)(C)C (some centres unmarked) [Example 93] |
| 8.68 | 9.22 | CN[C@@H](C)C(=O)N[C@H](C(=O)N1C[C@@H]2C[C@H]1C(=O)NC(Cc1ccc3ccccc3c1)C(=O)N[C@H](C(=O)NS(=O)(=O)CCCO)Cc1ccc(cc1)OC/C=C/C[C@H]1C[C@@H](C(=O)N[C@@H](Cc3ccc4ccccc4c3)C(=O)N[C@H](C(=O)O)Cc3ccc(cc3)OCc3cn2nn3)N(C(=O)[C@@H](NC(=O)[C@H](C)NC)C(C)(C)C)C1)C(C)(C)C (some centres unmarked) [Example 94] |
| 8.51 | 8.74 | CN[C@@H](C)C(=O)N[C@H](C(=O)N1C[C@@H]2C[C@H]1C(=O)NC(Cc1ccc3ccccc3c1)C(=O)N[C@H](c1n[nH]c(=O)n1Cc1ccc(OC)cc1)Cc1ccc(cc1)OC/C=C/C[C@H]1C[C@@H](C(=O)N[C@@H](Cc3ccc4ccccc4c3)C(=O)N[C@H](C(=O)O)Cc3ccc(cc3)OCc3cn2nn3)N(C(=O)[C@@H](NC(=O)[C@H](C)NC)C(C)(C)C)C1)C(C)(C)C (some centres unmarked) [Example 95] |
| 8.15 | 9.00 | CN[C@@H](C)C(=O)N[C@H](C(=O)N1C[C@@H]2C[C@H]1C(=O)NC(Cc1ccc3ccccc3c1)C(=O)N[C@H](C(=O)O)CCCCOC/C=C/C[C@H]1C[C@@H](C(=O)N[C@@H](Cc3ccc4ccccc4c3)C(=O)N[C@H](C(=O)O)Cc3ccc(cc3)OCc3cn2nn3)N(C(=O)[C@@H](NC(=O)[C@H](C)NC)C(C)(C)C)C1)C(C)(C)C (some centres unmarked) [Example 96] |
| 8.36 | 8.66 | CN[C@@H](C)C(=O)N[C@H](C(=O)N1C[C@H]2C/C=C/COc3ccc(cc3)C[C@@H](C(=O)O)NC(=O)[C@H]([C@H](C)c3ccc4ccccc4c3)NC(=O)[C@@H]3C[C@@H](CN3C(=O)[C@@H](NC(=O)[C@H](C)NC)C(C)(C)C)n3cc(nn3)COc3ccc(cc3)C[C@@H](C(=O)NS(=O)(=O)C3CC3)NC(=O)[C@H](Cc3ccc4ccccc4c3)NC(=O)[C@@H]1C2)C(C)(C)C [Example 98] |
| 8.62 | 8.43 | CN[C@@H](C)C(=O)N[C@H](C(=O)N1C[C@@H]2C[C@H]1C(=O)NC(Cc1ccc3ccccc3c1)C(=O)N[C@H](C(=O)O)Cc1ccc(cc1)OCCCC[C@H]1C[C@@H](C(=O)N[C@@H](Cc3ccc4ccccc4c3)C(=O)N[C@H](c3nnn[nH]3)Cc3ccc(cc3)OCc3cn2nn3)N(C(=O)[C@@H](NC(=O)[C@H](C)NC)C(C)(C)C)C1)C(C)(C)C (some centres unmarked) [Example 99] |
| 8.34 | 8.38 | CN[C@@H](C)C(=O)N[C@H](C(=O)N1C[C@@H]2C[C@H]1C(=O)NC(Cc1ccc3ccccc3c1)C(=O)N[C@H](C(=O)NS(=O)(=O)C1CC1)Cc1ccc(cc1)OCCCC[C@H]1C[C@@H](C(=O)N[C@@H](Cc3ccc4ccccc4c3)C(=O)N[C@H](C(=O)NS(=O)(=O)C3CC3)Cc3ccc(cc3)OCc3cn2nn3)N(C(=O)[C@@H](NC(=O)[C@H](C)NC)C(C)(C)C)C1)C(C)(C)C (some centres unmarked) [Example 100] |
| 8.21 | 9.00 | CN[C@@H](C)C(=O)N[C@H](C(=O)N1C[C@@H]2C[C@H]1C(=O)NC(Cc1ccc3ccccc3c1)C(=O)N[C@H](C(=O)NS(=O)(=O)CCCO)Cc1ccc(cc1)OCCCC[C@H]1C[C@@H](C(=O)N[C@@H](Cc3ccc4ccccc4c3)C(=O)N[C@H](C(=O)O)Cc3ccc(cc3)OCc3cn2nn3)N(C(=O)[C@@H](NC(=O)[C@H](C)NC)C(C)(C)C)C1)C(C)(C)C (some centres unmarked) [Example 101] |
